Measurements published in BindingDB's records for doi:10.1016/j.ejmech.2014.09.039 (2014).

Biological target: Neuronal acetylcholine receptor subunit alpha-7 (Homo sapiens, UniProt P36544)
Assay: Positive allosteric modulation at human alpha7 nACHR expressed in Xenopus oocyte assessed as potentiation of ACh-induced current at holding potential of -80 mV measured as ACh EC50 at 1 uM by electrophysiology (Rvb = 176 uM)

Sequence of Neuronal acetylcholine receptor subunit alpha-7 (P36544 whole entry): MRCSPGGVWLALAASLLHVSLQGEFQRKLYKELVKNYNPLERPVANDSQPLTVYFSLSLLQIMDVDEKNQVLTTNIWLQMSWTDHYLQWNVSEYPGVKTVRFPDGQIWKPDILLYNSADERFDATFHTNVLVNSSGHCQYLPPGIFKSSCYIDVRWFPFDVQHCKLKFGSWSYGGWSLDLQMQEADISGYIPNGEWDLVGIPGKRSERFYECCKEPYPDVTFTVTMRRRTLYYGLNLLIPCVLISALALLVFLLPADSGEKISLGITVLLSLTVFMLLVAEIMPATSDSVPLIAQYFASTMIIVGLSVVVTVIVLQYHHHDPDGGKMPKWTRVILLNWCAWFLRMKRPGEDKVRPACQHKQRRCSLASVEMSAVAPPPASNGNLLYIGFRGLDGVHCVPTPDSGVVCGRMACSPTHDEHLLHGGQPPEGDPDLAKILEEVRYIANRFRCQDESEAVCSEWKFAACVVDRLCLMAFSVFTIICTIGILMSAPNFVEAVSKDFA

| EC50 | SMILES |
| --- | --- |
| 125 µM | O=C(/C=C/c1ccc(O)cc1O)c1cc(O)ccc1O |
| 56 µM | O=C(/C=C/c1ccc(O)cc1)c1cc(O)ccc1O |
